A short description of the experiment: DPPH radical scavenging antioxidant test. The format is biochemical. Conditions: 517 nm; for Inhibition (radical scavenging inhibition): compound 3 μM in ethanol, 0.2 mL DPPH (0.75 mM), 30 min incubation in the dark. The method, then:
The antioxidant properties of the 8-(4-chlorobenzylideneamino)naphthalene-1,3-disulfonic acid were studied by adding 0.2 mL DPPH (0.75 mM)) to compound 8-(4-chlorobenzylideneamino)naphthalene-1,3-disulfonic acid (III) (3 μM) in ethanol. After 30 min of incubation in the dark, the absorbance was read against a blank at 517 nm. Ascorbic acid (vitamin C) was used as standard antioxidants (positive control). A blank sample was prepared by 0.2 ml of DPPH in 3 ml ethanol. A negative control sample was run using ethanol instead of the sample. The radical scavenging inhibition was calculated using the following equation: […]
For orientation: The DPPH test is a chemical assay of radical scavenging.

As for `O=C1O[C@H]([C@@H](O)CO)C(O)=C1O` [vit c, Ascorbic acid, reference compound], the “Inhibition (radical scavenging inhibition)” value was 74%. Consider `O=S(=O)(O)c1cc(S(=O)(=O)O)c2c(/N=C/c3ccc(Cl)cc3)cccc2c1` [Product III, 8-(4-chlorobenzylideneamino)naphthalene-1,3-disulfonic acid], for which the “Inhibition (radical scavenging inhibition)” value was 50%. In addition, the “antioxidant potential in DPPH in vitro test (in words)” value (DPPH, vitamin C as positive control) is “high potential as an antioxidant compared to vitamin C”.

The values are drawn from patent US11970439B1, “8-(4-chlorobenzylideneamino)naphthalene-1,3-disulfonic acid as an antioxidant compound” (KING FAISAL UNIVERSITY, priority 2023, dated 2024).
